Experimental data published in patent US20240277637A1, “CAPSAICIN DERIVATIVES IN THE TREATMENT OF IDIOPATHIC PULMONARY FIBROSIS” (aXichem AB, priority 2021, published 2024).

Legend:
[1] = tested on: human bronchial epithelial cells; test: Clonogenic cell survival assay, bronchial epithelial cells with PDGF-AB (Example 4); format: cell-based; conditions: 10 ng/ml PDGF-AB, 14 days
Experimental: Primary isolated human bronchial epithelial cells (NHBE) were used in this assay sourced from the American Tissue Culture Collection (Normal, Human (ATCC® BEAS-2B™)) and were cultured up to passage 6. […].
The effects of Phenylcapsaicin (2) on clonogenic survival of bronchial epithelial cells, by plating the cells with increasing numbers (102 to 5×104) in 25 cm^2 flasks were investigated. SU9518* and Phenylcapsaicin were used as positive controls. The cells were incubated with 0-10 μM (3% DMSO aqueous) of Phenylcapsaicin, SU9518, and compounds 8-12 separately in the presence of 10 ng/ml PDGF-AB (Sigma Aldrich). The flasks were returned to the incubator for 14 days, after which they were stained with crystal violet (Sigma Aldrich). The colonies were counted and the surviving percentage was determined for clonogenic survival after correcting for plating efficiency. The synthetic analogs were all calculated at 100% purity for molar concentrations.

[2] = Rage Paulsen et al. 2018; cited from earlier work

COc1cc(CNC(=O)CCCCC#Cc2ccccc2)ccc1O [Compound 2, N-(4-hydroxy-3-methoxybenzyl)-7-phenylhept-6-ynamide]
effect on clonogenic survival / PDGF inhibition (words) ([1]; 0-10 μM): reduction in the survival fraction of endothelial cells in a dose dependent manner
Clonogenic Survival Assay (percent) ([1]; 0.10 uM): 83%
Clonogenic Survival Assay (percent) ([1]; 0.50 uM): 59%
Clonogenic Survival Assay (percent) ([1]; 1.00 uM): 41%
Clonogenic Survival Assay (percent) ([1]; 2.00 uM): 35%
Clonogenic Survival Assay (percent) ([1]; 5.00 uM): 35%
Clonogenic Survival Assay (percent) ([1]; 10.00 uM): 32%
gene mutations and chromosomal damage [2]: safe with regards to gene mutations and chromosomal damage
systemic toxicity [2]: low systemic toxicity
